{"source": "patent US8309586B2", "about": "“Glucokinase activators and pharmaceutical compositions containing the same as an active ingredient” (LG Life Sciences Ltd., priority 2007, dated 2012)", "data": [{"test_system": "Glucokinase known as hexokinase IV (human GK isoform 1, pancreas form and human GK isoform 2, liver form)", "assay": "Glucokinase enzymatic activity assay (G6PDH-coupled, NADH absorbance at 340 nm)", "assay_type": "biochemical", "conditions": "5 mM glucose, 1 mM ATP, 37 nM GK, 10 min at room temperature", "procedure,_shortened": "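His-tagged human GK isoform 1 (pancreas) or 2 (liver), E. coli-expressed and Ni-purified, 37 nM, with 5 mM glucose, 1 mM ATP, 1 mM NAD and G6PDH in 25 mM Hepes/KCl, 2 mM MgCl2, 1 mM DTT. Ran 10 min at room temperature, read as NADH at 340 nm. AC1.5 is the compound concentration giving 1.5-fold activity.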", "units": {"AC1.5 (the compound concentration at which the enzymatic activity is increased by 1.5 times)": "nM"}, "values": [{"smiles": "CCNC(=O)C[C@@H]1CSC(c2cc3cccc(NC4CCCC4)c3[nH]2)=N1", "note": "[Example 89, 2-[(R)-2-(7-cyclopentylamino-1H-indol-2-yl)-4,5-dihydro-thiazol-4-yl]-N-ethyl-acetamide]", "AC1.5 (the compound concentration at which the enzymatic activity is increased by 1.5 times)": 32}, {"smiles": "CNC(=O)C[C@@H]1CSC(c2cc3cccc(NC4CCCC4)c3[nH]2)=N1", "note": "[Example 90, 2-[(R)-2-(7-cyclopentylamino-1H-indol-2-yl)-4,5-dihydro-thiazol-4-yl]-N-methyl-acetamide]", "AC1.5 (the compound concentration at which the enzymatic activity is increased by 1.5 times)": 37}, {"smiles": "O=C(C[C@@H]1CSC(c2cc3cccc(NC4CCCC4)c3[nH]2)=N1)N1CCOCC1", "note": "[Example 91, 2-[(R)-2-(7-cyclopentylamino-1H-indol-2-yl)-4,5-dihydro-thiazol-4-yl]-1-morpholin-4-yl-ethanone]", "AC1.5 (the compound concentration at which the enzymatic activity is increased by 1.5 times)": 72}, {"smiles": "CNC(=O)C[C@@H]1CSC(c2cc3cccc(NC4CCOCC4)c3[nH]2)=N1", "note": "[Example 92, N-methyl-2-{(R)-2-[7-(tetrahydro-pyran-4-ylamino)-1H-indol-2-yl]-4,5-dihydro-thiazol-4-yl}-acetamide]", "AC1.5 (the compound concentration at which the enzymatic activity is increased by 1.5 times)": 112}, {"smiles": "O=C(C[C@@H]1CSC(c2cc3cccc(NC4CCOCC4)c3[nH]2)=N1)N1CCOCC1", "note": "[Example 93, 1-morpholin-4-yl-2-{(R)-2-[7-(tetrahydro-pyran-4-ylamino)-1H-indol-2-yl]-4,5-dihydro-thiazol-4-yl}-ethanone]", "AC1.5 (the compound concentration at which the enzymatic activity is increased by 1.5 times)": 239}, {"smiles": "CN(C)CC[C@@H]1CSC(c2cc3cc(Cl)cc(NC4CCCC4)c3[nH]2)=N1", "note": "[Example 94, {5-chloro-2-[(R)-4-(2-dimethylamino-ethyl)-4,5-dihydro-thiazol-2-yl]-1H-indol-7-yl}-cyclopentyl-amine]", "AC1.5 (the compound concentration at which the enzymatic activity is increased by 1.5 times)": 15}, {"smiles": "CC(=O)N1CCN(CC[C@@H]2CSC(c3cc4cc(Cl)cc(NC5CCCC5)c4[nH]3)=N2)CC1", "note": "[Example 97, 1-(4-{2-[(R)-2-(5-chloro-7-cyclopentylamino-1H-indol-2-yl)-4,5-dihydro-thiazol-4-yl]-ethyl}-piperazin-1-yl)-ethanone]", "AC1.5 (the compound concentration at which the enzymatic activity is increased by 1.5 times)": 6}, {"smiles": "CCS(=O)(=O)N1CCN(CC[C@@H]2CSC(c3cc4cc(Cl)cc(NC5CCCC5)c4[nH]3)=N2)CC1", "note": "[Example 98, (5-chloro-2-{(R)-4-[2-(4-ethanesulfonyl-piperazin-1-yl)-ethyl]-4,5-dihydro-thiazol-2-yl}-1H-indol-7-yl)-cyclopentyl-amine]", "AC1.5 (the compound concentration at which the enzymatic activity is increased by 1.5 times)": 7}, {"smiles": "CN1CCN(CC[C@@H]2CSC(c3cc4cc(Cl)cc(NC5CCCC5)c4[nH]3)=N2)CC1", "note": "[Example 100, (5-chloro-2-{(R)-4-[2-(4-methyl-piperazin-1-yl)-ethyl]-4,5-dihydro-thiazol-2-yl}-1H-indol-7-yl)-cyclopentyl-amine]", "AC1.5 (the compound concentration at which the enzymatic activity is increased by 1.5 times)": 11}, {"smiles": "OC1CCN(CC[C@@H]2CSC(c3cc4cc(Cl)cc(NC5CCCC5)c4[nH]3)=N2)CC1", "note": "[Example 101, 1-{2-[(R)-2-(5-chloro-7-cyclopentylamino-1H-indol-2-yl)-4,5-dihydro-thiazol-4-yl]-ethyl}-piperidin-4-ol]", "AC1.5 (the compound concentration at which the enzymatic activity is increased by 1.5 times)": 10}, {"smiles": "O=C1CN(CC[C@@H]2CSC(c3cc4cc(Cl)cc(NC5CCCC5)c4[nH]3)=N2)CCN1", "note": "[Example 102]", "AC1.5 (the compound concentration at which the enzymatic activity is increased by 1.5 times)": 7}, {"smiles": "CN(C)C1CCN(CC[C@@H]2CSC(c3cc4cc(Cl)cc(NC5CCCC5)c4[nH]3)=N2)C1", "note": "(stereo partly drawn) [Example 103, (5-chloro-2-{(R)-4-[2-(3-dimethylamino-pyrrolidin-1-yl)-ethyl]-4,5-dihydro-thiazol-2-yl}-1H-indol-7-yl)-cyclopentyl-amine]", "AC1.5 (the compound concentration at which the enzymatic activity is increased by 1.5 times)": 16}, {"smiles": "Clc1cc(NC2CCCC2)c2[nH]c(C3=N[C@H](CCN4CCCCC4)CS3)cc2c1", "note": "[Example 104, {5-chloro-2-[(R)-4-(2-piperidin-1-yl-ethyl)-4,5-dihydro-thiazol-2-yl]-1H-indol-7-yl}-cyclopentyl-amine]", "AC1.5 (the compound concentration at which the enzymatic activity is increased by 1.5 times)": 13}, {"smiles": "O=S1(=O)CCN(CC[C@@H]2CSC(c3cc4cc(Cl)cc(NC5CCCC5)c4[nH]3)=N2)CC1", "note": "[Example 105, (5-chloro-2-{(R)-4-[2-(1,1-dioxo-thiomorpholin-4-yl)-ethyl]-4,5-dihydro-thiazol-2-yl}-1H-indol-7-yl)-cyclopentyl-amine]", "AC1.5 (the compound concentration at which the enzymatic activity is increased by 1.5 times)": 6}, {"smiles": "Clc1cc(NC2CCCC2)c2[nH]c(C3=N[C@H](CCn4cccn4)CS3)cc2c1", "note": "[Example 106, {5-chloro-2-[(R)-4-(2-pyrazol-1-yl-ethyl)-4,5-dihydro-thiazol-2-yl]-1H-indol-7-yl}-cyclopentyl-amine]", "AC1.5 (the compound concentration at which the enzymatic activity is increased by 1.5 times)": 14}, {"smiles": "O=C(O)[C@@H]1CCCN1CC[C@@H]1CSC(c2cc3cc(Cl)cc(NC4CCCC4)c3[nH]2)=N1", "note": "[Example 107, (S)-1-{2-[(R)-2-(5-chloro-7-cyclopentylamino-1H-indol-2-yl)-4,5-dihydro-thiazol-4-yl]-ethyl}-pyrrolidine-2-carboxylic acid]", "AC1.5 (the compound concentration at which the enzymatic activity is increased by 1.5 times)": 63}, {"smiles": "CS(=O)(=O)CC[C@@H]1CSC(c2cc3cc(Cl)cc(NC4CCCC4)c3[nH]2)=N1", "note": "[Example 108, {5-chloro-2-[(R)-4-(2-methanesulfonyl-ethyl)-4,5-dihydro-thiazol-2-yl]-1H-indol-7-yl}-cyclopentyl-amine]", "AC1.5 (the compound concentration at which the enzymatic activity is increased by 1.5 times)": 15}, {"smiles": "CCOC(=O)c1c(C)ncn1CC[C@@H]1CSC(c2cc3cc(Cl)cc(NC4CCCC4)c3[nH]2)=N1", "note": "[Example 109, 3-{2-[(R)-2-(5-chloro-7-cyclopentylamino-1H-indol-2-yl)-4,5-dihydro-thiazol-4-yl]-ethyl}-5-methyl-3H-imidazole-4-carboxylic acid ethyl ester]", "AC1.5 (the compound concentration at which the enzymatic activity is increased by 1.5 times)": 26}, {"smiles": "Cc1ncn(CC[C@@H]2CSC(c3cc4cc(Cl)cc(NC5CCCC5)c4[nH]3)=N2)c1C(=O)O", "note": "[Example 110, 3-{2-[(R)-2-(5-chloro-7-cyclopentylamino-1H-indol-2-yl)-4,5-dihydro-thiazol-4-yl]-ethyl}-5-methyl-3H-imidazole-4-carboxylic acid]", "AC1.5 (the compound concentration at which the enzymatic activity is increased by 1.5 times)": 30}, {"smiles": "O=C1CCCN1CC[C@@H]1CSC(c2cc3cc(Cl)cc(NC4CCCC4)c3[nH]2)=N1", "note": "[Example 111, 1-{2-[(R)-2-(5-chloro-7-cyclopentylamino-1H-indol-2-yl)-4,5-dihydro-thiazol-4-yl]-ethyl}-pyrrolidin-2-one]", "AC1.5 (the compound concentration at which the enzymatic activity is increased by 1.5 times)": 11}, {"smiles": "O=C(O)C1CCCN(CC[C@@H]2CSC(c3cc4cc(Cl)cc(NC5CCOCC5)c4[nH]3)=N2)C1", "note": "(stereo partly drawn) [Example 112, 1-(2-{(R)-2-[5-chloro-7-(tetrahydro-pyran-4-ylamino)-1H-indol-2-yl]-4,5-dihydro-thiazol-4-yl}-ethyl)-piperidine-3-carboxylic acid]", "AC1.5 (the compound concentration at which the enzymatic activity is increased by 1.5 times)": 81}, {"smiles": "O=C(c1ccco1)N1CCN(CC[C@@H]2CSC(c3cc4cc(Cl)cc(NC5CCOCC5)c4[nH]3)=N2)CC1", "note": "[Example 121, [4-(2-{(R)-2-[5-chloro-7-(tetrahydro-pyran-4-ylamino)-1H-indol-2-yl]-4,5-dihydro-thiazol-4-yl}-ethyl)-piperazin-1-yl]-furan-2-yl-methanone]", "AC1.5 (the compound concentration at which the enzymatic activity is increased by 1.5 times)": 40}]}]}
